Consider 9 molecules from ChEMBL document CHEMBL1130366, “Search for surrogates: A study of endothelin receptor antagonist structure activity relationships” (Bioorg Med Chem Lett, 1997).

Test [1] deals with T1, Endothelin receptor type B (Homo sapiens, UniProt P24530).
T1 sequence (P24530 whole entry): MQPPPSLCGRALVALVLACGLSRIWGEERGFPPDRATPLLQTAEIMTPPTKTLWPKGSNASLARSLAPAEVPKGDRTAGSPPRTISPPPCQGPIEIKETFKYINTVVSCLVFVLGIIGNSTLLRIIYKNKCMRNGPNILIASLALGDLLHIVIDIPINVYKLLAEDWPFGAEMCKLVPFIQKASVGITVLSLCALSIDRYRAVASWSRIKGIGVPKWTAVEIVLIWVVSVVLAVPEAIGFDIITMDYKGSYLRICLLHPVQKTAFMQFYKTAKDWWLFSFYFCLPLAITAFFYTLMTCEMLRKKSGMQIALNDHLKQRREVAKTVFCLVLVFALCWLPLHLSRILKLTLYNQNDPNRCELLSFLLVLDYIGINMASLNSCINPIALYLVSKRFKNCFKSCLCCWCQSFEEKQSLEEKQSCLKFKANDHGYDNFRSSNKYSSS
Description: Inhibition of I-ET-1 binding to human Endothelin B receptor.

The next test has as its target T2, Endothelin-1 receptor (Homo sapiens, UniProt P25101).
T2 sequence (P25101 whole entry): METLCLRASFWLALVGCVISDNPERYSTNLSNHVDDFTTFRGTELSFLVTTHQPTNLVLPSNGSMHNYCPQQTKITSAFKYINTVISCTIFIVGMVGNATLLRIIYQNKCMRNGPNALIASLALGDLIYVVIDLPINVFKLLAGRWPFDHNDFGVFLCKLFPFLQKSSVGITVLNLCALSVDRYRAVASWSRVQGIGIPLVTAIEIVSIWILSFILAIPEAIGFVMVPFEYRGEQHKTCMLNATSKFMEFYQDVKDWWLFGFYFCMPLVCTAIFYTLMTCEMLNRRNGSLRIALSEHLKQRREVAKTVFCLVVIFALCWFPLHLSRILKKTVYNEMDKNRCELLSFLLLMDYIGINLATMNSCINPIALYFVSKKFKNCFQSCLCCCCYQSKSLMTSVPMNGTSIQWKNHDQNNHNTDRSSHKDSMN
The test can be described thus: Inhibition of I-ET-1 binding to human Endothelin A receptor.

One may read the IC50 as the point on the concentration scale where inhibition reaches its midpoint. The low end stands for higher potency, the high end for lower potency.

Consider `CCCc1cc2c(cc1OCc1sccc1S(=O)(=O)Nc1onc(C)c1Br)OCO2`, for which the IC50 was 335 nM in test [1] and 104 nM at Endothelin-1 receptor.

On to `Cc1ccc(OCc2sccc2S(=O)(=O)Nc2onc(C)c2Br)cc1`, for which the IC50 in test [1] amounted to 15600 nM.

In the case of `Cc1noc(NS(=O)(=O)c2ccsc2COc2cc3c(cc2Cl)OCO3)c1Br`, the figures for the IC50 (in test [1]; on Endothelin-1 receptor) were 765 nM and 129 nM, respectively.

As to `Cc1noc(NS(=O)(=O)c2sccc2COc2ccc3c(c2)OCO3)c1Br`, the results for the IC50 (in test [1]; on Endothelin-1 receptor) were 9550 nM and 513 nM, respectively.

Regarding `Cc1ccc(OCc2ccsc2S(=O)(=O)Nc2onc(C)c2Br)c(C)c1`, the IC50 in test [1] was determined as 7270 nM.

Regarding `Cc1noc(NS(=O)(=O)c2ccsc2COc2ccc3c(c2)OCO3)c1Br`, the IC50 in test [1] was 5930 nM; at Endothelin-1 receptor, 299 nM.

In the case of `Cc1cc(C)c(OCc2ccsc2S(=O)(=O)Nc2onc(C)c2Br)c(C)c1`, the results for the IC50 (in test [1]; at Endothelin-1 receptor) were 4280 nM and 54 nM, respectively.

`Cc1cc(C)c(OCc2sccc2S(=O)(=O)Nc2onc(C)c2Br)c(C)c1`: the IC50 in test [1] was 3070 nM; at Endothelin-1 receptor it was 62 nM.

Regarding `CCCc1cc2c(cc1OCc1ccsc1S(=O)(=O)Nc1onc(C)c1Br)OCO2`, the figures for the IC50 (in test [1]; on Endothelin-1 receptor) were 1300 nM and 134 nM, respectively.
